Key:
Format in all cases: physicochemical
[1] = Breakdown products by GCMS after Maillard reaction in the presence of Histidine; conditions: 160° C.; for 2-Butanone concentration / 2-Propanone, 1-hydroxy- concentration / Diacetyl (2,3-Butanedione) concentration: Carbonyls/ketones; for Furan, 2-methyl- concentration / Furfural concentration: Furans; for Pyrazine, 2,5-diethyl- concentration / Pyrazine, 2,5-dimethyl- concentration / Pyrazine, 2-ethyl-5-methyl- concentration / Pyrazine, ethyl- concentration / Pyrazine, methyl- concentration: Pyrazines
Description: (§1) Controls were prepared addition of 1 mL of pH 7 buffer to the amino acids. The samples were rapidly heated to 160° C. and held at this temperature for 10 min. Samples were rapidly cooled afterwards, and absorbance at 500 nm was measured for each reaction mixture. Volatiles were analysed using gas chromatography mass spectrometry (GCMS) analysis. An Agilent Technologies 5975B Inert XL MSD gas chromatography, single quadruple mass spectrometer was used for analysis of volatiles. Samples were added to separate GCMS headspace vials and weighed. 0.03 g of 0.01% 3-heptanone in water was added and the vial was sealed for GCMS solid phase micro extraction (SPME) analysis. Samples were analysed in a randomized order. Samples were incubated and agitated at 250 RPM, at 60° C. for 15 min prior to SPME analysis of volatiles. The SPME fibre (50/30 DVB/CAR/PDMS, 23 Ga) extracted for 10 min, then thermally desorbed at 250° C. for 5 min. A 30 m×0.25 mm×0.25 μm HP-5MS column was used (Phenomenex, UK). Oven temperature settings: 31° C.-5 min, 5° C./min to 150° C., 30° C./min to 240° C. Inlet settings: 250° C., pressure 10.4 psi, flow 11.2 mL/min, split ratio 7:1. MS operated in full scan mode from 40 to 400 m/z with a scan time of 0.2s. The peak area of the aroma compounds was compared to the peak of the internal standard 3-heptanone and corrected for the weight of the sample.
(§2) The concentration of the different classes of Maillard reaction breakdown products is presented in Tables 9B-E. The same data as Tables 9B-E is also presented in FIG. 27. Concentrations are in parts per billion of the difference non-enzymatic breakdown products for the different compositions at 160° C. analysed by GCMS.

[2] = Breakdown products by GCMS after Maillard reaction in the presence of Leucine; conditions: Maillard reaction in the presence of Leucine, 160° C., GCMS; for 2-Butanone concentration / 2-Propanone, 1-hydroxy- concentration / Diacetyl (2,3-Butanedione) concentration: Carbonyls/ketones; for Furan, 2-methyl- concentration / Furfural concentration: Furans; for Pyrazine, 2,5-diethyl- concentration / Pyrazine, 2,5-dimethyl- concentration / Pyrazine, 2-ethyl-5-methyl- concentration / Pyrazine, ethyl- concentration / Pyrazine, methyl- concentration: Pyrazines; for Isovaleraldehyde (Butanal, 3-methyl-) concentration: Strecker aldehydes
Description: as §1, §2

[3] = Breakdown products by GCMS after Maillard reaction in the presence of Tryptophan; conditions: with Tryptophan, pH 7, 160° C., 10 min
Description: as §1, §2

[4] = Breakdown products by GCMS without an amino acid present; conditions: pH 7, 160° C., 10 min
Description: as §1, §2

2-Butanone concentration [1] [ppb]	2-Propanone, 1-hydroxy- concentration [1] [ppb]	Diacetyl (2,3-Butanedione) concentration [1] [ppb]	Furan, 2-methyl- concentration [1] [ppb]	Furfural concentration [1] [ppb]	Pyrazine, 2,5-diethyl- concentration [1] [ppb]	Pyrazine, 2,5-dimethyl- concentration [1] [ppb]	Pyrazine, 2-ethyl-5-methyl- concentration [1] [ppb]	Pyrazine, ethyl- concentration [1] [ppb]	Pyrazine, methyl- concentration [1] [ppb]	2-Butanone concentration [2] [ppb]	2-Propanone, 1-hydroxy- concentration [2] [ppb]	Diacetyl (2,3-Butanedione) concentration [2] [ppb]	Furan, 2-methyl- concentration [2] [ppb]	Furfural concentration [2] [ppb]	Pyrazine, 2,5-diethyl- concentration [2] [ppb]	Pyrazine, 2,5-dimethyl- concentration [2] [ppb]	Pyrazine, 2-ethyl-5-methyl- concentration [2] [ppb]	Pyrazine, ethyl- concentration [2] [ppb]	Pyrazine, methyl- concentration [2] [ppb]	SMILES	other results
1.25	0	2.2	0	0.02	0	0	0.38	0	0											N[C@@H](Cc1c[nH]cn1)C(=O)O [Histidine]	
										2.04	0.23	3.75	0	0.03	0	0	1	0	0	CC(C)C[C@H](N)C(=O)O [Leucine]	Isovaleraldehyde (Butanal, 3-methyl-) concentration [2]: 1.56 ppb
																				N[C@@H](Cc1c[nH]c2ccccc12)C(=O)O [Tryptophan]	Concentration of 2-Butanone [3]: 0.56 ppb; Concentration of 2-Propanone, 1-hydroxy- [3]: 0.05 ppb; Concentration of Diacetyl (2,3-Butanedione) [3]: 2.08 ppb; Concentration of Furan, 2-methyl- [3]: 0 ppb; Concentration of Furan, 2-pentyl- [3]: 0.03 ppb; Concentration of Furfural [3]: 0.02 ppb; Concentration of Indole [3]: 8.55 ppb; Concentration of Pyrazine, 2,5-diethyl- [3]: 0 ppb; Concentration of Pyrazine, 2,5-dimethyl- [3]: 0 ppb; Concentration of Pyrazine, 2-ethyl-5-methyl- [3]: 0.26 ppb; Concentration of Pyrazine, ethyl- [3]: 0 ppb; Concentration of Pyrazine, methyl- [3]: 0 ppb
53.5	196.75	32.61	28.4	15.26	17.88	587.06	288.64	4.48	5.22	212.85	647.73	458.75	170.12	118.44	84.11	2510.13	1146.75	59.9	496.33	O=C[C@H](O)[C@@H](O)[C@H](O)CO [Xylose]	Isovaleraldehyde (Butanal, 3-methyl-) concentration [2]: 15873.58 ppb; Concentration of 2-Butanone [3]: 70.81 ppb; Concentration of 2-Propanone, 1-hydroxy- [3]: 227.11 ppb; Concentration of Diacetyl (2,3-Butanedione) [3]: 55.57 ppb; Concentration of Furan, 2-methyl- [3]: 52.32 ppb; Concentration of Furan, 2-pentyl- [3]: 6.28 ppb; Concentration of Furfural [3]: 0.15 ppb; Concentration of Indole [3]: 53.49 ppb; Concentration of Pyrazine, 2,5-diethyl- [3]: 25 ppb; Concentration of Pyrazine, 2,5-dimethyl- [3]: 751.39 ppb; Concentration of Pyrazine, 2-ethyl-5-methyl- [3]: 394.72 ppb; Concentration of Pyrazine, ethyl- [3]: 13.61 ppb; Concentration of Pyrazine, methyl- [3]: 59.72 ppb; Concentration of 2-Butanone [4]: 75.3 ppb; Concentration of 2-Propanone, 1-hydroxy- [4]: 196.36 ppb; Concentration of 5-methyl furfural [4]: 27.19 ppb; Concentration of Diacetyl (2,3-Butanedione) [4]: 267.18 ppb; Concentration of Furan, 2-methyl- [4]: 7.83 ppb; Concentration of Furfural [4]: 65.56 ppb

From patent US20240114940A1, “SACCHARIDE COMPOSITIONS HAVING SUCROSE-LIKE CHARACTERISTICS AND RELATED METHODS” (priority 2021, published 2024)
